Data published in patent US9828379B2 (priority 2013, dated 2017).

How the values were obtained:
[1] = target: T1, ABHD6 (Mus musculus, UniProt Q8R2Y0); assay: biochemical; conditions: in vitro competitive ABPP
T1 sequence (Q8R2Y0 1-336): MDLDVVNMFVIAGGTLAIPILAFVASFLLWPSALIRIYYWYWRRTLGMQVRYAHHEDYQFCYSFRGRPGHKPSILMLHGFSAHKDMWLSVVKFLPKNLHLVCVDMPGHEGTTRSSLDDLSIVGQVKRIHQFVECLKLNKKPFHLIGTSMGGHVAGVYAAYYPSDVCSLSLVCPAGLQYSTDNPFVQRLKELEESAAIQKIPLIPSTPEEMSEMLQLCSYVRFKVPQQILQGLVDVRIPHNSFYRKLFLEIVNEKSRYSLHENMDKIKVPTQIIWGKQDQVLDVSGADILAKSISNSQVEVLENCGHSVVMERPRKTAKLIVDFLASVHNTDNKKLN

[2] = target: T2, FAAH (Mus musculus, UniProt O08914); assay: biochemical; conditions: in vitro competitive ABPP
T2 sequence (O08914 1-579): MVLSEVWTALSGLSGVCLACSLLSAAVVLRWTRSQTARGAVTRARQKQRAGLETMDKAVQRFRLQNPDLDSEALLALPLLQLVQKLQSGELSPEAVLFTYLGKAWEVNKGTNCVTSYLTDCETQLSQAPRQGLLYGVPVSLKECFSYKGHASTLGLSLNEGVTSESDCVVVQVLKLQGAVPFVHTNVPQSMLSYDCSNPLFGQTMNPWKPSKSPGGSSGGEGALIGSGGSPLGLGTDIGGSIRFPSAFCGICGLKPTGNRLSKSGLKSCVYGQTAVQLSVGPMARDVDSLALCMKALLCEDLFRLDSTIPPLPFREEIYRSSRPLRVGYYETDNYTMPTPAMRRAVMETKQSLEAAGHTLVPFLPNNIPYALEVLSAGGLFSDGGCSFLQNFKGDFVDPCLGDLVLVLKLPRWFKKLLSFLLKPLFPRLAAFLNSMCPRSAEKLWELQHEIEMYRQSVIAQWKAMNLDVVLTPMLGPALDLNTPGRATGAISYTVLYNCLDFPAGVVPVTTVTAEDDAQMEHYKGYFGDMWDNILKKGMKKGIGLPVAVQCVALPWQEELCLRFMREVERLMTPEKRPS

[3] = target: T3, MAGL (Mus musculus, UniProt O35678); assay: biochemical; conditions: mouse; in vitro competitive ABPP; read-out: Mouse (IC50 value, nM) MAGL
T3 sequence (O35678 1-303): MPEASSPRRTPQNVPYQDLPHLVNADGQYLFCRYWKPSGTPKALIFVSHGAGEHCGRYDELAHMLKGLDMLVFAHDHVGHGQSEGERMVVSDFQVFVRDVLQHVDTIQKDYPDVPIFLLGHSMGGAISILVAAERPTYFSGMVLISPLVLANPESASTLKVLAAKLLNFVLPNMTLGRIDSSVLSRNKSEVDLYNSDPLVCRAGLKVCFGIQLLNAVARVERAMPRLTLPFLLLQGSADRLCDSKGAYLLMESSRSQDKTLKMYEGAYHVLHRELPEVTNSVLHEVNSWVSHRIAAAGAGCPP

[4] = target: T1, ABHD6; assay: In vitro competitive activity-based protein profiling (Table 2, % inhibition at 1 μM); assay type: biochemical; conditions: read-out: % Inhibition at 1 μM ABHD6
[5] = target: T2, FAAH; assay: as above; assay type: biochemical; conditions: read-out: % Inhibition at 1 μM FAAH
[6] = target: T3, MAGL; assay: as above; assay type: biochemical; conditions: read-out: % Inhibition at 1 μM MAGL
Description: After 30 min, FP—Rh (1.0 μL, 50 μM in DMSO) was added and the mixture was incubated for another 30 min at 37° C. Reactions were quenched with SDS loading buffer (50 μL-4×) and run on SDS-PAGE.
Cell lysates were diluted with mock proteomes for use in competitive ABPP experiments.

| Structure (SMILES) | IC50 [1] [nM] | IC50 [2] [nM] | IC50 [3] [nM] | inhibition at 1 µM [4] [%] | inhibition at 1 µM [5] [%] | inhibition at 1 µM [6] [%] |
| --- | --- | --- | --- | --- | --- | --- |
| Cc1c(CN2CC3CN(C(=O)ON4C(=O)CCC4=O)CC3C2)cccc1N1CCC(F)(F)CC1 (stereo not drawn) [Example 144, 2,5-dioxopyrrolidin-1-yl 5-[[3-(4,4-difluoropiperidin-1-yl)-2-methylphenyl]methyl]-octahydropyrrolo[3,4-c]pyrrole-2-carboxylate] | 1000 to 10000 | 100 to 1000 | < 100 | < 25 | > 75 | > 75 |
| Cc1cccc(CN2CC3CN(C(=O)OC(C(F)(F)F)C(F)(F)F)CC3C2)c1N1CCOCC1 (stereo not drawn) [Example 41, 1,1,1,3,3,3-Hexafluoropropan-2-yl 5-[[3-methyl-2-(morpholin-4-yl)phenyl]methyl]-octahydropyrrolo[3,4-c]pyrrole-2-carboxylate] | 1000 to 10000 | 1000 to 10000 | 100 to 1000 | < 25 | < 25 | > 75 |
| O=C(OC(C(F)(F)F)C(F)(F)F)N1CC2CN(Cc3ccc(Cl)cc3N3CCC3)CC2C1 (stereo not drawn) [Example 39, 1,1,1,3,3,3-Hexafluoropropan-2-yl 5-[[2-(azetidin-1-yl)-4-chlorophenyl]methyl]-octahydropyrrolo[3,4-c]pyrrole-2-carboxylate] | 1000 to 10000 | 100 to 1000 | < 100 | < 25 | 25 to 75 | > 75 |
| CC(=O)NC1CCN(c2cccc(CN3CC4CN(C(=O)OC(C(F)(F)F)C(F)(F)F)CC4C3)c2C)CC1 (stereo not drawn) [Example 151, 1,1,1,3,3,3-hexafluoropropan-2-yl 5-[[3-(4-acetamidopiperidin-1-yl)-2-methylphenyl]methyl]-octahydropyrrolo[3,4-c]pyrrole-2-carboxylate] | 1000 to 10000 | 1000 to 10000 | < 100 | 25 to 75 | < 25 | > 75 |
| Cc1c(CN2CC3CN(C(=O)OC(C(F)(F)F)C(F)(F)F)CC3C2)cccc1N1CCN(S(C)(=O)=O)CC1 (stereo not drawn) [Example 150, 1,1,1,3,3,3-hexafluoropropan-2-yl 5-[[3-(4-methanesulfonylpiperazin-1-yl)-2-methylphenyl]methyl]-octahydropyrrolo[3,4-c]pyrrole-2-carboxylate] | 1000 to 10000 | 1000 to 10000 | < 100 | < 25 | 25 to 75 | > 75 |
| CC(=O)N1CCN(c2ccc(CN3CC4CN(C(=O)OC(C(F)(F)F)C(F)(F)F)CC4C3)c(F)c2)CC1 (stereo not drawn) [Example 26, 1,1,1,3,3,3-Hexafluoropropan-2-yl 5-[[4-(4-acetylpiperazin-1-yl)-2-fluorophenyl]methyl]-octahydropyrrolo[3,4-c]pyrrole-2-carboxylate] | 1000 to 10000 | 1000 to 10000 | 100 to 1000 | 25 to 75 | < 25 | > 75 |
| CC(C)n1cc(CN2CC3CN(C(=O)OC(C(F)(F)F)C(F)(F)F)CC3C2)c(-c2ccccc2)n1 (stereo not drawn) [Example 53, 1,1,1,3,3,3-Hexafluoropropan-2-yl 5-[[3-phenyl-1-(propan-2-yl)-1H-pyrazol-4-yl]methyl]-octahydropyrrolo[3,4-c]pyrrole-2-carboxylate] | 1000 to 10000 | 1000 to 10000 | < 100 | 25 to 75 | < 25 | > 75 |
| O=C(OC(C(F)(F)F)C(F)(F)F)N1CC2CN(Cc3ccc(F)cc3N3CCCC3)CC2C1 (stereo not drawn) [Example 15, 1,1,1,3,3,3-Hexafluoropropan-2-yl 5-[[4-fluoro-2-(pyrrolidin-1-yl)phenyl]methyl]-octahydropyrrolo[3,4-c]pyrrole-2-carboxylate] | 1000 to 10000 | 1000 to 10000 | 100 to 1000 | < 25 | 25 to 75 | > 75 |
| CCn1ncc(CN2CC3CN(C(=O)OC(C(F)(F)F)C(F)(F)F)CC3C2)c1C(=O)NCC1CCOCC1 (stereo not drawn) [Example 181, 1,1,1,3,3,3-hexafluoropropan-2-yl 5-((1-ethyl-5-(((tetrahydro-2H-pyran-4-yl)methyl)carbamoyl)-1H-pyrazol-4-yl)methyl)hexahydropyrrolo[3,4-c]pyrrole-2(1H)-carboxylate] | 100 to 1000 | > 10000 | < 100 | 25 to 75 | < 25 | > 75 |
| CC(=O)N1CCN(c2cc(F)ccc2CN2CC3CN(C(=O)OC(C(F)(F)F)C(F)(F)F)CC3C2)CC1 (stereo not drawn) [Example 17, 1,1,1,3,3,3-Hexafluoropropan-2-yl 5-[[2-(4-acetylpiperazin-1-yl)-4-fluorophenyl]methyl]-octahydropyrrolo[3,4-c]pyrrole-2-carboxylate] | 1000 to 10000 | 1000 to 10000 | 100 to 1000 | < 25 | 25 to 75 | > 75 |
| O=C(OC(C(F)(F)F)C(F)(F)F)N1CC2CN(Cc3ccc(N4CCCCC4)cc3C(F)F)CC2C1 (stereo not drawn) [Example 201, 1,1,1,3,3,3-hexafluoropropan-2-yl 5-(2-(difluoromethyl)-4-(piperidin-1-yl)benzyl)hexahydropyrrolo[3,4-c]pyrrole-2(1H)-carboxylate] | 1000 to 10000 | 1000 to 10000 | 100 to 1000 | < 25 | 25 to 75 | > 75 |
| O=C(ON1C(=O)CCC1=O)N1CC2CN(Cc3cccc(Cl)c3N3CCC(F)CC3)CC2C1 (stereo not drawn) [Example 160, 2,5-dioxopyrrolidin-1-yl 5-[[3-chloro-2-(4-fluoropiperidin-1-yl)phenyl]methyl]-octahydropyrrolo[3,4-c]pyrrole-2-carboxylate] | 1000 to 10000 | 1000 to 10000 | 100 to 1000 | 25 to 75 | 25 to 75 | > 75 |
| O=C(OC(C(F)(F)F)C(F)(F)F)N1CC2CN(Cc3cccc(Cl)c3N3CCC(F)(F)CC3)CC2C1 (stereo not drawn) [Example 158, 1,1,1,3,3,3-hexafluoropropan-2-yl 5-[[3-chloro-2-(4,4-difluoropiperidin-1-yl)phenyl]methyl]-octahydropyrrolo[3,4-c]pyrrole-2-carboxylate] | 1000 to 10000 | > 10000 | 100 to 1000 | < 25 | < 25 | > 75 |
| Cc1c(CN2CC3CN(C(=O)OC(C(F)(F)F)C(F)(F)F)CC3C2)cccc1N1CCC(NS(C)(=O)=O)CC1 (stereo not drawn) [Example 149, 1,1,1,3,3,3-hexafluoropropan-2-yl 5-[[3-(4-methanesulfonamidopiperidin-1-yl)-2-methylphenyl]methyl]-octahydropyrrolo[3,4-c]pyrrole-2-carboxylate] | 1000 to 10000 | 1000 to 10000 | < 100 | < 25 | 25 to 75 | > 75 |
| O=C(OC(C(F)(F)F)C(F)(F)F)N1CC2CN(Cc3ccc(C(F)(F)F)cc3N3CC4COCC4C3)CC2C1 (stereo not drawn) [Example 210, 1,1,1,3,3,3-hexafluoropropan-2-yl 5-(2-(tetrahydro-1H-furo[3,4-c]pyrrol-5(3H)-yl)-4-(trifluoromethyl)benzyl)hexahydropyrrolo[3,4-c]pyrrole-2(1H)-carboxylate] | 1000 to 10000 | 1000 to 10000 | < 100 | < 25 | < 25 | > 75 |
